Consider seven compounds from patent US20250255889A1, “METHODS FOR TREATMENT SELECTION FOR CHRONIC LYMPHOCYTIC LEUKEMIA (CLL)” (The Broad Institute, Inc., priority 2022, published 2025).

In this experiment the test system is primary CLL samples (CD19+ and CD5+ cells). Kind of experiment: High-throughput dynamic BH3 profiling (HT-DBP): drug-induced apoptotic priming (delta priming), cytochrome c release after BH3 peptide. Format: cell-based, human. Particulars: for drug-induced apoptotic priming: across CLL subtypes, 65 primary CLL samples, 20 hours drug. Here is the method:
By “delta priming” is meant the difference in priming of a cell for apoptosis measured in the presence of an agent for treating chronic lymphocytic leukemia relative to priming of the cell in the presence of an inert carrier. In embodiments, the inert carrier is DMSO.
Dynamic BH3 Profiling Dynamic BH3 profiling (DBP) is a drug screening assay that measures the relative priming of cells in a biological sample for cell death by apoptosis in the presence of a specific compound and/or a pro-apoptotic peptide. By “Dynamic BH3 profiling” is meant measuring drug-induced changes in mitochondrial apoptotic priming. Mitochondrial apoptotic priming is a measure of how close to the apoptotic threshold a cell is. A highly primed cell has relatively less anti-apoptotic binding site availability and is closer to the apoptotic threshold than a poorly primed cell, which has more anti-apoptotic availability to buffer an apoptotic assault and is further from the apoptotic threshold. BH3 peptides derived from the BH3 domain of pro-apoptotic BH3-only proteins provoke a response from viable mitochondria. Cytochrome c released from the mitochondria after a short incubation with BH3 peptide is used as a surrogate for priming. In general, the more sensitive a mitochondrion is to a BH3 peptide, the more primed it is. A drug treatment that enhances priming will cause mitochondria to undergo MOMP more easily when incubated with a fixed concentration of a promiscuously binding BH3 peptide, such as BIM BH3 peptide, compared to control-treated cells. See, for example, Potter, D. S. & Letai, A. To prime, or not to prime: that is the question. Cold Spring Harb. Symp. Quant. Biol. 81, 131-140 (2016); Montero, J. et al. Drug-induced death signaling strategy rapidly predicts cancer response to chemotherapy. Cell 160, 977-989 (2015); Daniels, V. W. et al. Metabolic perturbations sensitize triple-negative breast cancers to apoptosis induced by BH3 mimetics. Sci.
Dynamic BH3 profiling and peptides for use therein are described, for example, in Certo, et al., “Mitochondria primed by death signals determine cellular addiction to antiapoptotic BCL-2 family members,” Cancer Cell, 9:351-365 (2006); and in Foight, et al. “Designed BH3 Peptides with High Affinity and Specificity for Targeting Mcl-1 in Cells,” ACS Chemical Biology, 9:1962-1968 (2014), the disclosures of which are incorporated herein by reference in their entireties for all purposes. The DBP assay enables one to compare the response of a patient tumor sample to a specific drug relative to other drugs and relative to an inert control (e.g., DMSO).
To address the challenge of selecting a proper treatment for a chronic lymphocytic leukemia, experiments were undertaken to optimize high-throughput dynamic BH3 profiling (HT-DBP) for evaluation of the drug sensitivities of CLL samples (FIGS. 1, 13, 5A, 5B, 6A, 6B, and 7A-7C).

[1] abbreviates: peptide BAD 0.3 uM, feature EC-i.
The mark [2] stands for this setting: peptide PUMA 1 uM, feature gain_7q22.1.
The mark [3] stands for this setting: peptide PUMA 1 uM, feature loss_14q32.12.
[4] abbreviates: peptide BIM 0.01 uM, feature EC-m2.
[5] abbreviates: peptide BIM 0.01 uM, feature loss_17q23.1.
Where [6] appears, read: peptide BAD 0.3 uM, feature IGLV321_R110.
[7] abbreviates: peptide BAD 0.3 uM, feature NOTCH1.
[8] abbreviates: peptide BAD 0.3 uM, feature RPS15.
Setting [9] is: peptide BAD 0.3 uM, feature loss_6q.
[10] abbreviates: peptide BIM 0.01 uM, feature IGLV321_R110.
[11] abbreviates: peptide BIM 0.01 uM, feature RPS15.
[12] abbreviates: peptide BIM 0.01 uM, feature loss_6q.
The mark [13] stands for this setting: peptide MS1 2.5 uM, feature IGLV321_R110.
[14] abbreviates: peptide MS1 2.5 uM, feature NOTCH1.
[15] abbreviates: peptide MS1 2.5 uM, feature RPS15.
Where [16] appears, read: peptide MS1 2.5 uM, feature loss_6q.
Where [17] appears, read: peptide PUMA 1 uM, feature IGLV321_R110.
The mark [18] stands for this setting: peptide PUMA 1 uM, feature NOTCH1.
The mark [19] stands for this setting: peptide PUMA 1 uM, feature RPS15.
[20] abbreviates: peptide PUMA 1 uM, feature loss_6q.
Where [21] appears, read: peptide BIM 0.01 uM, feature NOTCH1.
[22] abbreviates: peptide PUMA 1 uM, feature loss_17q23.1.
The mark [23] stands for this setting: peptide BAD 0.3 uM, feature loss_17p13.1.
Where [24] appears, read: peptide BAD 0.3 uM, feature loss_17q23.1.

For `Cn1c(CCCC(=O)O)nc2cc(N(CCCl)CCCl)ccc21` [Bendamustine], the direction entry (Feature loss_5p15.33) was “Sensitive”; the direction result (Feature loss_7p22.2) is recorded as “Sensitive”; the direction result (Feature loss_12p13.31a) is “Sensitive”; the direction entry (Feature loss_14q32.12) is on record as “Sensitive”; the direction entry under setting [1] is listed as “Sensitive”; the direction entry (peptide BAD 0.3 uM, feature loss_1q42.13) is “Sensitive”. In addition, the direction entry is reported as “Sensitive” (peptide BAD 0.3 uM, feature loss_5p15.33); “Sensitive” (peptide BAD 0.3 uM, feature loss_7p22.2); “Sensitive” (peptide BAD 0.3 uM, feature loss_12p13.31a); “Sensitive” (peptide BAD 0.3 uM, feature loss_14q32.12); “Sensitive” (peptide BAD 0.3 uM, feature loss_16p11.2); “Sensitive” (peptide MS1 2.5 uM, feature BIRC3). Further, the direction result by setting is: (peptide MS1 2.5 uM, feature CNOT3) “Sensitive”; (peptide MS1 2.5 uM, feature loss_9p21.3) “Sensitive”; (peptide MS1 2.5 uM, feature loss_17q11.2) “Sensitive”; under setting [2], “Sensitive”; under setting [3], “Sensitive”.
In the case of `CC(C)C[C@H](NC(=O)[C@H](CCc1ccccc1)NC(=O)CN1CCOCC1)C(=O)N[C@@H](Cc1ccccc1)C(=O)N[C@@H](CC(C)C)C(=O)[C@@]1(C)CO1` [Carfilzomib], the direction result is “Sensitive” under setting [4]; “Sensitive” under setting [5]; “Sensitive” (peptide PUMA 1 uM, feature MYD88); “Sensitive” under setting [2]; “Sensitive” (peptide PUMA 1 uM, feature i-CLL); “Sensitive” (peptide PUMA 1 uM, feature loss_3p21.31). Besides, the direction result under setting [3] is “Sensitive”.
Consider `CCS(=O)(=O)N1CCN(c2ccc(Nc3ncc(C(N)=O)c(NC4CC4)n3)cc2)CC1` [Cerdulatinib], for which the drug-induced apoptotic priming entry was “high priming”. Further, the direction result (Feature loss_13q14.13) is given as “Sensitive”. The direction entry (Feature loss_13q14.3) is “Sensitive”. Further, the direction entry (peptide BAD 0.3 uM, feature loss_13q14.13) is given as “Sensitive”. Moreover, the direction result (peptide BAD 0.3 uM, feature loss_13q14.3) is recorded as “Sensitive”. The direction result (peptide BIM 0.01 uM, feature KMT2D) is “Sensitive”. In addition, the direction result (peptide BIM 0.01 uM, feature loss_13q14.13) is given as “Sensitive”. For the same compound, where the note is “peptide BIM 0.01 uM, feature loss_13q14.3”, the direction entry was “Sensitive”. Also, the direction entry (peptide MS1 2.5 uM, feature loss_13q14.13) is given as “Sensitive”. For the same compound, the direction entry (peptide PUMA 1 uM, feature loss_13q14.13) is “Sensitive”. Further, the direction entry (peptide PUMA 1 uM, feature loss_13q14.3) is listed as “Sensitive”.
Consider `C[C@@H](Oc1cc(-c2cnn(C3CCNCC3)c2)cnc1N)c1c(Cl)ccc(F)c1Cl` [Crizotinib], for which the direction result runs as follows: under setting [1], “Resistant”; (peptide BAD 0.3 uM, feature EC-u1) “Sensitive”; under setting [6], “Resistant”; under setting [7], “Resistant”; (peptide BAD 0.3 uM, feature RFX7) “Sensitive”; under setting [8], “Resistant”. Besides, the direction result (peptide BAD 0.3 uM, feature ZMYM3) is reported as “Sensitive”; the direction entry under setting [9] is “Resistant”; the direction result (peptide BAD 0.3 uM, feature loss_11q22.3) is “Sensitive”; the direction entry (peptide BAD 0.3 uM, feature n-CLL) is listed as “Sensitive”; the direction result (peptide BIM 0.01 uM, feature EC-i) is given as “Resistant”; the direction entry under setting [10] is recorded as “Resistant”. In addition, the direction result is, setting by setting: (peptide BIM 0.01 uM, feature NOTCHI) “Resistant”; under setting [11], “Resistant”; (peptide BIM 0.01 uM, feature SF3B1) “Sensitive”; under setting [12], “Resistant”; under setting [13], “Resistant”; under setting [14], “Resistant”. The direction entry runs as follows: (peptide MS1 2.5 uM, feature RFX7) “Resistant”; under setting [15], “Resistant”; (peptide MS1 2.5 uM, feature ZMYM3) “Resistant”; under setting [16], “Resistant”; (peptide MS1 2.5 uM, feature priortrt_Post) “Resistant”; (peptide PUMA 1 uM, feature EC-i) “Resistant”. In addition, the direction entry is on record as “Resistant” under setting [17], “Resistant” under setting [18], “Resistant” under setting [19] and “Resistant” under setting [20].
Regarding `Cc1nc(Nc2ncc(C(=O)Nc3c(C)cccc3Cl)s2)cc(N2CCN(CCO)CC2)n1` [Dasatinib, dasatinib], the direction entry is on record as “Resistant” under setting [6]; “Resistant” under setting [7]; “Resistant” under setting [8]; “Resistant” under setting [9]; “Resistant” under setting [10]; “Resistant” under setting [21]. For the same compound, the direction result under setting [11] is recorded as “Resistant”; the direction result under setting [12] is recorded as “Resistant”; the direction entry under setting [5] is on record as “Sensitive”; the direction result (peptide MS1 2.5 uM, feature EC-i) is “Resistant”; the direction entry under setting [13] was “Resistant”; the direction result under setting [14] was “Resistant”. The direction entry is “Resistant” under setting [15]; “Resistant” under setting [16]; “Sensitive” (peptide MS1 2.5 uM, feature tri_12); “Resistant” under setting [17]; “Resistant” under setting [18]; “Resistant” under setting [19]. In addition, the direction result is, setting by setting: under setting [20], “Resistant”; under setting [22], “Sensitive”.
Consider `C[C@H](Nc1ncnc2[nH]cnc12)c1cc2cccc(Cl)c2c(=O)n1-c1ccccc1` [Duvelisib, duvelisib], for which the drug-induced apoptotic priming entry is recorded as “high priming”. Under setting [23], the direction entry is recorded as “Sensitive”. Moreover, the direction entry under setting [24] was “Sensitive”. Besides, under setting [4], the direction result is reported as “Sensitive”. Also, the direction result under setting [21] is “Resistant”. For the same compound, the direction entry (peptide MS1 2.5 uM, feature loss_17p13.1) is on record as “Sensitive”. Besides, the direction result (peptide MS1 2.5 uM, feature loss_17q23.1) is listed as “Sensitive”. Also, the direction result (peptide PUMA 1 uM, feature EC-m2) is recorded as “Sensitive”. For the same compound, for the setting “peptide PUMA 1 uM, feature loss_17p13.1”, the direction entry was “Sensitive”. Moreover, the direction entry under setting [22] was “Sensitive”.
On to `c1cn2cc(-c3ccc4cn[nH]c4c3)nc(Nc3ccc(N4CCOCC4)cc3)c2n1` [Entospletinib], for which the direction result is on record as “Sensitive” (Feature tri_12); “Sensitive” under setting [23]; “Sensitive” under setting [24]; “Sensitive” (peptide BAD 0.3 uM, feature loss_19p13.11); “Sensitive” (peptide BIM 0.01 uM, feature tri_12); “Sensitive” (peptide MS1 2.5 uM, feature loss_19p13.11). The direction entry (peptide PUMA 1 uM, feature loss_19p13.11) is “Sensitive”.
